Results taken from ChEMBL document CHEMBL3431459, “Roche carnitine palmitoyltransferase modulator screening data (supplementary data associated with the publication CHEMBL2216752)”.

Columns and labels:
[1] = molecular target: T1, Carnitine O-palmitoyltransferase 1, muscle isoform (Homo sapiens, UniProt Q92523); experiment: SUPPLEMENTARY: Inhibition of Carnitine palmitoyltransferase 1, muscle isoform; set-up: species or system Muscle tissue
T1 sequence (Q92523 whole entry): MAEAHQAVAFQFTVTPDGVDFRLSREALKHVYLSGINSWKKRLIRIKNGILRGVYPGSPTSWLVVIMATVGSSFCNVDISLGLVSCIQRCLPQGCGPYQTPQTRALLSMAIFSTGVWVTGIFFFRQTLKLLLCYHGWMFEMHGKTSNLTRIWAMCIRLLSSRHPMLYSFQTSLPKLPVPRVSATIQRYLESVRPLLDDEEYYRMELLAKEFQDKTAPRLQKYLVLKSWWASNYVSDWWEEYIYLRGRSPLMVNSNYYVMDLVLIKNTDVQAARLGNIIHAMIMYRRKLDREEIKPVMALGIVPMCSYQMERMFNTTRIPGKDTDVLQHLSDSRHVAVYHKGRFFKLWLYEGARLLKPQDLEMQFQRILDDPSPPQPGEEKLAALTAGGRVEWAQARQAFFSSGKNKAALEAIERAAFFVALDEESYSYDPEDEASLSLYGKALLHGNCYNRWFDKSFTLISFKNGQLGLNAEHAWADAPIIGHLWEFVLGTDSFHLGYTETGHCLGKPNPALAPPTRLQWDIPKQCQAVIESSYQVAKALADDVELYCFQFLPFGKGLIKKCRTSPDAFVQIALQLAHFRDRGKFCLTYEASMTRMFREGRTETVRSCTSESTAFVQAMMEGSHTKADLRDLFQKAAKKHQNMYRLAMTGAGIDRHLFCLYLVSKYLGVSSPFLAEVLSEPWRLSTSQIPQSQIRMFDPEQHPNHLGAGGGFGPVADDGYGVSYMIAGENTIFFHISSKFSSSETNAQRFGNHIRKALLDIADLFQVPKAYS

[2] = molecular target: T2, Carnitine O-palmitoyltransferase 2, mitochondrial (Homo sapiens, UniProt P23786); experiment: (§1) SUPPLEMENTARY: Inhibition of Carnitine palmitoyltransferase 2
T2 sequence (P23786 whole entry): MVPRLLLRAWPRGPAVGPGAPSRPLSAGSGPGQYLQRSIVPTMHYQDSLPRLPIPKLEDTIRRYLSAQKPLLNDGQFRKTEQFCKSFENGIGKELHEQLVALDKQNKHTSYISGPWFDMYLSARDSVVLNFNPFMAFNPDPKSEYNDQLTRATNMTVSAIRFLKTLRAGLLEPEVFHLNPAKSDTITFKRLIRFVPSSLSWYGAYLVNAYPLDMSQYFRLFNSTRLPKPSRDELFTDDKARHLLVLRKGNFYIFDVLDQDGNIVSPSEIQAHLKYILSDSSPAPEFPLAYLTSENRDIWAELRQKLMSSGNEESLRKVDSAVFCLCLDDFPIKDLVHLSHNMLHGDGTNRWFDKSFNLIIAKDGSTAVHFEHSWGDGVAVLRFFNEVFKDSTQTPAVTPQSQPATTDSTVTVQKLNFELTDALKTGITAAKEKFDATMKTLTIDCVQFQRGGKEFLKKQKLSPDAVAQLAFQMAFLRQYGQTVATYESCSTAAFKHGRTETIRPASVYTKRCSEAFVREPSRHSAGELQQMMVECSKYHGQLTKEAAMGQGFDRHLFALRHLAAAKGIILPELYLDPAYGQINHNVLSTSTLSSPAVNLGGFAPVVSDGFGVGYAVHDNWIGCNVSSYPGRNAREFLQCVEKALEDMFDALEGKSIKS

[3] = molecular target: T3, Carnitine O-palmitoyltransferase 2, mitochondrial (Rattus norvegicus, UniProt P18886); experiment: as §1
T3 sequence (P18886 whole entry): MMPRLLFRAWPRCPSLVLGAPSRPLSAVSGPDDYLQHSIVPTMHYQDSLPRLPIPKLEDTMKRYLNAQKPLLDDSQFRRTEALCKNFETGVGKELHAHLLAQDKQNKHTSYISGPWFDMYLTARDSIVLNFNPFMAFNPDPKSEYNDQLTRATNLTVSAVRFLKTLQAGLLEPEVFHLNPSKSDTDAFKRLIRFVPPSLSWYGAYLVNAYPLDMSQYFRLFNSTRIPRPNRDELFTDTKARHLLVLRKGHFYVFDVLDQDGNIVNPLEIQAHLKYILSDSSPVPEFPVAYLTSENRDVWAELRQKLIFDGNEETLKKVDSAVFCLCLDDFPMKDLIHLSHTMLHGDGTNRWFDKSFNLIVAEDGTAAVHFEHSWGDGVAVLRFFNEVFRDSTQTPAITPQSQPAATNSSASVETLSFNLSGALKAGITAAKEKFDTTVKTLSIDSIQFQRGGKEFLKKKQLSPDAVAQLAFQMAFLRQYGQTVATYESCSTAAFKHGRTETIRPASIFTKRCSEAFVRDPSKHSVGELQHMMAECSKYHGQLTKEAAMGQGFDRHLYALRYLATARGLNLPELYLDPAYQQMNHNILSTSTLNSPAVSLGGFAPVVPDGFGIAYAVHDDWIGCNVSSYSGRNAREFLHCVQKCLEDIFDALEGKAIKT

[4] = molecular target: T4, Carnitine O-palmitoyltransferase 1, liver isoform (Homo sapiens, UniProt P50416); experiment: (§2) SUPPLEMENTARY: Inhibition of Carnitine palmitoyltransferase 1, liver isoform
T4 sequence (P50416 whole entry): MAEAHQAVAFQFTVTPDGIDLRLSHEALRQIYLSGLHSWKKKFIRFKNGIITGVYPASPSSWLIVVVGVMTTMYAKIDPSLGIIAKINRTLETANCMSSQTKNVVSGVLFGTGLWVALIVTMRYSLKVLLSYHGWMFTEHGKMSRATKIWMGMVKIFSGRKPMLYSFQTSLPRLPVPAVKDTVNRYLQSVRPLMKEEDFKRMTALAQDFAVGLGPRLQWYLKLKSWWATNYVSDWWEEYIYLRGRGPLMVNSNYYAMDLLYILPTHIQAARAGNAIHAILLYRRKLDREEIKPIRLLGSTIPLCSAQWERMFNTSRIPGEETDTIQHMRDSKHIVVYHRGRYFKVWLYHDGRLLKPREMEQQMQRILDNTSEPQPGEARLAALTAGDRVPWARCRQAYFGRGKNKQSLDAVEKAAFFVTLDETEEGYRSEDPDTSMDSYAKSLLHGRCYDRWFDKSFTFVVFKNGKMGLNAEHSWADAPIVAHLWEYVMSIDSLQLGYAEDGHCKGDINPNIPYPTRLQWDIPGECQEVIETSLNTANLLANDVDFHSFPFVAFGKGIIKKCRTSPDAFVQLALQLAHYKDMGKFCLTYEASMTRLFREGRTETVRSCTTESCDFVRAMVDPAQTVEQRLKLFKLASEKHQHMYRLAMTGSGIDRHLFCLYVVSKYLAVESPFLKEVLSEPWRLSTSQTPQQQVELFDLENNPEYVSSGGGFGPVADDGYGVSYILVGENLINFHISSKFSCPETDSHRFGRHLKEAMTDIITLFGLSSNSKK

[5] = molecular target: T5, Carnitine O-palmitoyltransferase 1, liver isoform (Rattus norvegicus, UniProt P32198); experiment: as §2
T5 sequence (P32198 whole entry): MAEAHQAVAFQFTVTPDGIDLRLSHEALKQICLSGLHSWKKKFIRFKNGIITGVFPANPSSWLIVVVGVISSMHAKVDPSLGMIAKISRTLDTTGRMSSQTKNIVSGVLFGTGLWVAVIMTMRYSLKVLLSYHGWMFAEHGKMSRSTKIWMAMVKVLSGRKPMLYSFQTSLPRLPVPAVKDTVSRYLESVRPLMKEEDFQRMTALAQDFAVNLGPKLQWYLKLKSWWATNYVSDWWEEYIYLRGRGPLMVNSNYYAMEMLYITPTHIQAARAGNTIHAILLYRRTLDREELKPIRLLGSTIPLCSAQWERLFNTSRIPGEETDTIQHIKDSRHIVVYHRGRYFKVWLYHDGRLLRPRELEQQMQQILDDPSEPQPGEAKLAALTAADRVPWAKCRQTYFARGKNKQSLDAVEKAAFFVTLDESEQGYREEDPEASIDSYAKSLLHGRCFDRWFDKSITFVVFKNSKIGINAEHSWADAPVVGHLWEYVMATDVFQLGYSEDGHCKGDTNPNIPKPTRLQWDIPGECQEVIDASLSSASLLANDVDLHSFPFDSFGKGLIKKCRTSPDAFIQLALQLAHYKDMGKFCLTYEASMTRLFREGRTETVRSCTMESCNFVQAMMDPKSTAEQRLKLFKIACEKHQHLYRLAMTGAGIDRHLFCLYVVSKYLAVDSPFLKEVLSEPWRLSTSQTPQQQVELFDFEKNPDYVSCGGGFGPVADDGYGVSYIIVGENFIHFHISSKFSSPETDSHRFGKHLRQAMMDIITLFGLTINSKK

| IC50 [1] | IC50 [2] | IC50 [3] | IC50 [4] | IC50 [5] | SMILES |
| --- | --- | --- | --- | --- | --- |
| > 100000 nM | 193 nM | 643 nM | 103 nM | 72.7 nM | O=C([C@H]1CCCCN1C(=O)COc1ccccc1)N1Cc2ccc(OC3CCOCC3)cc2C1 |
| > 100000 nM | > 100000 nM | > 100000 nM | 156 nM | 76.9 nM | O=C(COc1ccccc1)N1CCCC[C@@H]1c1nnn(-c2ccccc2)n1 |
| > 100000 nM | > 100000 nM | 28000 nM | > 10000 nM | > 10000 nM | O=C(O)c1ccccc1CCc1ccc(NS(=O)(=O)c2ccc(Cl)cc2)cc1 |
| > 100000 nM | 24200 nM | > 100000 nM | 159 nM | 103 nM | COc1ccc(-n2nnc([C@H]3CCCCN3C(=O)COc3ccccc3)n2)cc1 |
| > 100000 nM | 544 nM | 291 nM | 151 nM | 233 nM | O=C([C@H]1CCCCN1C(=O)COc1ccccc1)N1CCN(c2cccc(Cl)c2)CC1 |
| 2970 nM | 13800 nM | > 100000 nM | 224 nM | 188 nM | COc1ccc(Cl)cc1S(=O)(=O)N(c1cc(C(=O)Nc2nc(CC(=O)O)cs2)cc2c1OCO2)C(C)C |
| > 100000 nM | > 100000 nM | > 100000 nM | 153 nM | 173 nM | O=C(COc1ccccc1)N1CCCC[C@@H]1c1noc(-c2cc(F)c(F)cc2F)n1 |
| > 100000 nM | 17400 nM | > 100000 nM | 123 nM | 607 nM | CS(=O)(=O)c1ccc(-n2nnc([C@H]3CCCCN3C(=O)COc3ccccc3)n2)cc1 |
| > 100000 nM | 59800 nM | > 100000 nM | 305 nM | 632 nM | COC(=O)c1cccc(-c2nc([C@H]3CCCCN3C(=O)COc3ccccc3)sc2C)c1 |
| > 100000 nM | 1440 nM | 16000 nM | 325 nM | 2910 nM | COc1ccc(Cl)cc1S(=O)(=O)N1CCOc2c(C(F)F)cc(C(=O)Nc3ccc(C(=O)O)cc3)cc21 |
| > 100000 nM | 551 nM | 1330 nM | 118 nM | 35.7 nM | O=C([C@H]1CCCCN1C(=O)COc1ccccc1)N1Cc2ccc(O[C@H]3CCOC3)cc2C1 |
| 1760 nM | > 100000 nM | > 100000 nM | 324 nM | 252 nM | CCCN(c1cc(C(=O)Nc2ccn(CC(=O)O)n2)cc2c1OCO2)S(=O)(=O)c1cc(Cl)ccc1OC |
| > 100000 nM | > 100000 nM | > 100000 nM | 1380 nM | 1230 nM | O=C(COc1ccccc1)N1CCCC[C@@H]1c1nc(-c2ccc(Cl)cc2)cs1 |
| 31700 nM | 586 nM | 1270 nM | 124 nM | 196 nM | Cc1ccnc(N2CCN(C(=O)[C@H]3CCCCN3C(=O)COc3ccccc3)CC2)c1 |
| 1520 nM | 4360 nM | 10600 nM | 87.4 nM | 124 nM | COc1ccc(Cl)cc1S(=O)(=O)N1CCSc2ccc(C(=O)Nc3ccc(C(=O)O)c(Cl)c3)cc21 |
| 1820 nM | > 100000 nM | > 100000 nM | 388 nM | 658 nM | COc1ccc(Cl)cc1S(=O)(=O)N1CCCc2ccc(NC(=O)c3ccc(CC(=O)O)cc3)cc21 |
| 1530 nM | > 100000 nM | > 100000 nM | 622 nM | 453 nM | COCCN(c1cc(C(=O)Nc2ccc(CC(=O)O)cc2)cc2c1OCO2)S(=O)(=O)c1cc(Cl)ccc1OC |
| 17800 nM | 44800 nM | > 100000 nM | 503 nM | 1050 nM | O=C(COc1ccccc1)OCc1cc(-c2nc([C@H]3CCCCN3C(=O)COc3ccccc3)cs2)ccn1 |
| 16900 nM | > 100000 nM | > 100000 nM | 40.2 nM | 14.6 nM | COc1ccc(Cl)cc1S(=O)(=O)N1C[C@@H](C(=O)O)Oc2ccc(C(=O)Nc3ccccc3)cc21 |
| 1370 nM | > 100000 nM | > 100000 nM | 339 nM | 686 nM | CCN(c1cc(C(=O)Nc2ccn(CC(=O)O)n2)cc2c1OCO2)S(=O)(=O)c1cc(Cl)ccc1OC |
| > 100000 nM | 16200 nM | > 100000 nM | 75.7 nM | 386 nM | O=C1CCC(=O)N1c1cc(F)cc(-c2noc([C@H]3CCCCN3C(=O)COc3ccccc3)n2)c1 |
